The structures appear in SMILES notation. In brackets after ≈: the same amount, converted by molar mass. Some results are limits rather than exact numbers.

Here are results for two molecules from US4225619A, “Substituted fluoracylresorcinols” (Boehringer Ingelheim GmBH, priority 1976, dated 1980).

Common to all, as to format: cell-based
One assay deals with Pityrosporum ovale. The experiment in a line: Serial dilution test for Pityrosporum ovale. The note with it: Malassezia furfur, 168 h, 27° C. for 7 days, read-out: MIC, S.D.T., Pityrosporum ovale. The procedure:
Serial dilution test for Corynebacterium acnes and Pityrosporum ovale Nutrient medium
For Corynebacterium acnes: thioglycolate-broth for Pityrosporum ovale: Littmann's broth, 5 ml per tube.
Suspension of microorganisms in 0.9% sodium chloride solution, standardized using a photometer according to Eppendorf by means of a suspension for comparison consisting of barium sulfate, for Corynebacterium acnes in a dilution of 1:100, for Pityrosporum ovale in an undiluted state. 0.1 ml of the suspensions was used per test tube. Dimethyl sulfoxide served as a solvent for the substances.
The suspension with Corynebacteria acnes was incubated at 37° C. for 48 hours, the suspension of Pityrosporum ovale at 27° C. for 7 days. The reading was effected by macroscopic evaluation of the growth of microorganisms and registration of the minimal inhibitory concentration.

Assay [1] has as its system Aspergillus niger. The experiment in a line: Agar diffusion test (hole-test). The note with it: 168 h, 27° C. for 7 days, read-out: MIC, A.D.T., Aspergillus niger. The protocol:
(§1) The inhibitory effect on bacteria and fungi was examined by the serial dilution test and the agar diffusion test (hole-test). As bacteria were used: Staphylococcus aureus SG 511, Streptococcus Aronson, Streptococcus pyogenes At CC 86 68; as fungi: Candida albicans AT CC 10231, Trichophyton mentagrophytes AT CC 9129 and Aspergillus niger.
(§2) 3. Sabouraud agar: for C. alb., Trich. ment., A. niger
(§3) The age of the primary cultures is 24 hours for bacteria and 14 days for fungi. The standardization of the suspension of microorganisms is effected using a photometer according to Eppendorf (test tube .phi.14 mm, filter 546 nm) and a suspension for comparison consisting of barium sulfate, this suspension being created by addition of 3.0 ml of 1% barium chloride solution to 97 ml of 1% sulfuric acid. After the standardization St. aureus SG 511 was diluted 1:1000 and Sc. pyogenes and Aronson 1:100 by means of sodium chloride solution. The fungi were used in an undiluted state.
(§4) 40 mgm of the substance were put into a 10 ml measuring flask and filled up to the mark with the solvent (corresponds to a dilution of 1:250=4000 μg/ml).
(§5) The dilutions to the concentrations under test were effected with distilled water or the respective solvent.
(§6) 19 ml of the nutrient medium were filled into sterile Petri dishes of a diameter of 8 cm and dried. Subsequently the agar plates were charged with 4 ml of seed agar. 100 ml of seed agar contain 1.25 ml of the suspension of microorganisms, an agar plate thus containing 0.05 ml of the suspension of microorganisms. After solidification of the agar, 5 holes of a diameter of 5 mm were punched into the plates and filled with 0.05 ml of the correspondingly concentrated substance solution.
(§7) Control tests merely using the solvent are to be carried out simultaneously.
(§8) Bacteria were incubated at 37° C. for 18-20 hours and fungi at 27° C. for 7 days.
(§9) The diameter of the area of inhibition in mm was measured after having deducted the diameter of the hole.

Assay [2] relates to Trichophyton mentagrophytes AT CC 9129. The experiment in a line: Agar diffusion test (hole-test). To be noted: ATCC9129, 168 h, 27° C. for 7 days, read-out: MIC, A.D.T., Trichophyton mentagrophytes. The protocol:
as §1, §2, §3, §4, §5, §6, §7, §8, §9

The subject of assay [3] is Candida albicans AT CC 10231. The experiment in a line: Agar diffusion test (hole-test). The note with it: ATCC10231, 168 h, 27° C. for 7 days, read-out: MIC, A.D.T., Candida albicans. The procedure: as §1, §2, §3, §4, §5, §6, §7, §8, §9
Assay [4] has as its system Pityrosporum ovale CBS 1878. The experiment in a line: Agar diffusion test for Pityrosporum ovale CBS 1878. The note with it: Malassezia furfur, CBS1878, 168 h, 7 days at 27° C., read-out: MIC, A.D.T., Pityrosporum ovale. The protocol:
Agar diffusion test for Pityrosporum ovale CBS 1878 Nutrient medium
Littmann's agar, 23 ml per Petri dish, diameter of dish 100 mm.
Suspension of microorganisms in 0.9% sodium chloride solution, standardized using a photometer according to Eppendorf by means of a suspension for comparison consisting of barium sulfate. 0.05 ml per plate were used. The test substances were dissolved in dimethyl sulfoxide. The incubation time was 7 days at 27° C.; the area of inhibition in mm was measured, 0.05 ml of the solution of the substance were used for each punch-hole of a diameter of 6 mm. The results of these tests are recorded in the following tables 1 and 2: […]

Assay [5] concerns Aspergillus niger. In words: Serial dilution test. The note with it: Aspergillus niger, 168 h, 27° C. for 7 days, read-out: MIC, S.D.T., Aspergillus niger. The procedure: as §1
(§10) 3. Sabouraud broth: for C. alb., Trich. mnt., A. niger
(§11) The age of the primary cultures is 24 hours for bacteria and 14 days for fungi. The standardization of the suspension of microorganisms is effected using a photometer according to Eppendorf (test tube .phi.14 mm, filter 546 nm) and a suspension for comparison consisting of barium sulfate, this suspension being created by adition of 3.0 ml of 1% barium chloride solution to 97 ml of 1% sulfuric acid. After the standardization the bacteria were further diluted to a concentration of 1:1000 by means of sodium chloride solution, the fungi were used in an undiluted state.
(§12) 40 mgm of the substance were put into a 10 ml measuring flask and filled up to the mark with the solvent (corresponds to a dilution of 1:250=4000 μg/ml). The further dilution series was standardized with distilled water or the respective solvent and the following substance concentrations were prepared: 1000; 250; 62.5 μg/ml.
(§13) The tubes were filled with 4.9 ml of the corresponding liquid nutrient medium. Then 0.1 ml of the substance dilution prepared above was added to each tube, so that the mentioned final concentrations were present. Finally each tube was inoculated with 0.1 ml of the standardized suspension of microorganisms. Control tests merely using the solvent are to be carried out simultaneously.
as §8
(§14) The measurement is carried out macroscopically defining the minimal inhibitory concentration (the lowest still microbiostatically effective concentration).

For assay [6], the system named is Trichophyton mentagrophytes AT CC 9129. In words: Serial dilution test. The note with it: ATCC9129, 168 h, 27° C. for 7 days, read-out: MIC, S.D.T., Trichophyton mentagrophytes. The procedure:
as §1, §10, §11, §12, §13, §8, §14

The test system of assay [7] is Candida albicans AT CC 10231. The experiment in a line: Serial dilution test. The protocol:
as §1, §10, §11, §12, §13, §8, §14

Regarding `CCCCCCCCCCc1cc(C(=O)C(F)(F)F)c(O)cc1O` [W, 2,4-Dihydroxy-5-n-decyl-trifluoroacetophenone], the MIC was 80 µg/mL (≈ 231 µM) in the assay with Pityrosporum ovale; 250 µg/mL (≈ 722 µM) in the assay with Aspergillus niger [1]; at most 15.6 µg/mL in assay [2]; 1000 µg/mL (≈ 2890 µM) in assay [3]; 250 µg/mL (≈ 722 µM) in assay [4]; 5 µg/mL (≈ 14.4 µM) in the assay on Aspergillus niger [5]. Further, the MIC in assay [6] worked out at 1.25 µg/mL (≈ 3.61 µM). The “Concentration with reduced growth (value in brackets), S.D.T., Candida albicans” value in assay [7] (reduced growth at this concentration) came out at 20 µg/mL.

For the molecule `O=C(c1cc(Cl)c(O)cc1O)C(F)(F)F` [U, 2,4-Dihydroxy-5-chloro-trifluoroacetophenone], the MIC in the assay on Pityrosporum ovale was 10 µg/mL (≈ 41.6 µM); with Aspergillus niger [1], 250 µg/mL (≈ 1040 µM); in assay [2], 250 µg/mL (≈ 1040 µM); in assay [3] it was 1000 µg/mL (≈ 4160 µM); in assay [4], 1000 µg/mL (≈ 4160 µM); with Aspergillus niger [5] it was 20 µg/mL (≈ 83.1 µM). Besides, the MIC in assay [6] was 5 µg/mL (≈ 20.8 µM); in assay [7] (Candida albicans, ATCC10231, 168 h, 27° C. for 7 days, read-out: MIC, S.D.T., Candida albicans), 20 µg/mL (≈ 83.1 µM).
